In ChEMBL document CHEMBL1130728, “Alkoxide-catalyzed ring-opening of a novel homosaccharin derivative: synthesis of potent, selective P3-lactam thrombin inhibitors containing P4-o-alkoxycarbonylbenzylsulfonamide residues” (Bioorg Med Chem Lett, 1998):

Key:
[1] = biological target: T1, Plasminogen (Rattus norvegicus, UniProt Q01177); assay: In vitro inhibitory activity was evaluated against thrombolytic enzyme plasmin
[2] = In vitro inhibitory activity was evaluated against FIIa serine protease
[3] = biological target: Serine protease 1 (Homo sapiens, UniProt P07477); assay: In vitro inhibitory activity was evaluated against human trypsin
Serine protease 1, sequence (P07477 whole entry): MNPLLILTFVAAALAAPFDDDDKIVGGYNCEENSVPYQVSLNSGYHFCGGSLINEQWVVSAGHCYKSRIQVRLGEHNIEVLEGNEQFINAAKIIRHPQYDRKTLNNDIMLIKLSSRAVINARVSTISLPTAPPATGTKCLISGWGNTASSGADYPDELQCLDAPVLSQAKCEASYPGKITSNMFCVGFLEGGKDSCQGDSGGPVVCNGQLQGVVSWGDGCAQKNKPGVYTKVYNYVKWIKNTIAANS

[4] = biological target: Coagulation factor X (Homo sapiens, UniProt P00742); assay: In vitro inhibitory activity was evaluated against Coagulation factor X
Coagulation factor X, sequence (P00742 41-179 limits assumed): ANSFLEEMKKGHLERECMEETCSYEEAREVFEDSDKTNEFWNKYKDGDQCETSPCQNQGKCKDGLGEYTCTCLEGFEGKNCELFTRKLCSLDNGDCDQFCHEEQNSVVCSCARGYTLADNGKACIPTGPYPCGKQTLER
Coagulation factor X, sequence (P00742 235-488 limits assumed): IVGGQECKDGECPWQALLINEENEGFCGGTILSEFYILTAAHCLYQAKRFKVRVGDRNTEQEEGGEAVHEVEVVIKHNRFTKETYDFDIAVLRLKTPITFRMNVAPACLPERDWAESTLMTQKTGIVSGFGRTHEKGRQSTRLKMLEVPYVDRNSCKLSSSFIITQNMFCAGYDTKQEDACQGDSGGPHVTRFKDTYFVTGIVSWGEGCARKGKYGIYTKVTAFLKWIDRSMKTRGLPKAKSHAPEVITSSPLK

[5] = biological target: T1, Plasminogen; assay: In vitro inhibitory activity was evaluated against thrombolytic enzyme plasmin; Inactive

T1 sequence (Q01177 97-581 limits assumed): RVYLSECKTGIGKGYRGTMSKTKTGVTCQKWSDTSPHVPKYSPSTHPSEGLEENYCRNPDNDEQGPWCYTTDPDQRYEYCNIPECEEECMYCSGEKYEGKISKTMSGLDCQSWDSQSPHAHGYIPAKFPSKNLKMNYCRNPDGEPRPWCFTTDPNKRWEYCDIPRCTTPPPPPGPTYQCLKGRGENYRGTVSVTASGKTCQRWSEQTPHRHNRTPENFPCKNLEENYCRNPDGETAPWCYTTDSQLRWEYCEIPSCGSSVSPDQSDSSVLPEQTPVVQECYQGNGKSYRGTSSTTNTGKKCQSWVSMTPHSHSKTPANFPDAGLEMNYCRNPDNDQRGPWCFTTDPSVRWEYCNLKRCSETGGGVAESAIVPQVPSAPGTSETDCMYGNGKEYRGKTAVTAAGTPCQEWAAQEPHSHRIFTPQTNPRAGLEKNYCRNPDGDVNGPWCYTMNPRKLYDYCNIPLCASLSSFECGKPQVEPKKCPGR
T1 sequence (Q01177 582-812 limits assumed): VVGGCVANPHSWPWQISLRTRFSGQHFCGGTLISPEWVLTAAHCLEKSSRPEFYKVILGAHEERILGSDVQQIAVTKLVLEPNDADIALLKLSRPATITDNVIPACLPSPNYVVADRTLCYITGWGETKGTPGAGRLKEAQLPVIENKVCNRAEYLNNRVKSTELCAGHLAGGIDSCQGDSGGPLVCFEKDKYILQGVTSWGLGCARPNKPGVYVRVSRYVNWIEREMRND

Compound	IC50 [1] [nM]	IC50 [2] [nM]	IC50 [3] [nM]	IC50 [4] [nM]	IC50 [5]
N=C(N)N1CCC[C@H](NC(=O)CN2CCCC[C@H](NS(=O)(=O)Cc3ccccc3C(=O)O)C2=O)C1O (stereo not given in full)	> 2500	39.1	247	> 2500	
N=C(N)N1CCC[C@H](NC(=O)CN2CCCC[C@H](N3C(=O)c4ccccc4CS3(=O)=O)C2=O)C1O (stereo not given in full)	> 2500	244	2500	> 2500	
CCCOC(=O)c1ccccc1CS(=O)(=O)N[C@H]1CCCCN(CC(=O)N[C@H]2CCCN(C(=N)N)C2O)C1=O (stereo not given in full)	> 2500	0.96	79.8	451	
COC(=O)c1ccccc1CS(=O)(=O)N[C@H]1CCCCN(CC(=O)N[C@H]2CCCN(C(=N)N)C2O)C1=O (stereo not given in full)	> 2500	0.75	118	333	
N=C(N)N1CCC[C@H](NC(=O)CN2CCC[C@H](NS(=O)(=O)Cc3ccccc3)C2=O)C1O (stereo not given in full)		6.2		> 2500	Not Active
CC(C)OC(=O)c1ccccc1CS(=O)(=O)N[C@H]1CCCCN(CC(=O)N[C@H]2CCCN(C(=N)N)C2O)C1=O (stereo not given in full)	> 2500	0.94	41.3	369	
N=C(N)N1CCC[C@H](NC(=O)CN2CCCC[C@H](NS(=O)(=O)Cc3ccccc3C(=O)OCC3CCCCC3)C2=O)C1O (stereo not given in full)	1760	0.56	135	627	
CCCCCCCCCCOC(=O)c1ccccc1CS(=O)(=O)N[C@H]1CCCCN(CC(=O)N[C@H]2CCCN(C(=N)N)C2O)C1=O (stereo not given in full)	> 2500	7.03	143	> 2500	
N=C(N)N1CCC[C@H](NC(=O)CN2CCCC[C@H](NS(=O)(=O)Cc3ccccc3)C2=O)C1O (stereo not given in full)	> 2500	0.7	101	39.6	
